From US10377753B2, “Substituted 4-azaindoles and their use as GluN2B receptor modulators” (Janssen Pharmaceutica NV, priority 2015, dated 2019)
Counter-ions that a name gives are not always drawn.

Target: cloned human NR1/NR2B ion channels (Homo sapiens (Human), UniProt Q05586+Q13224)
Assay: HNR2BC: effects of test articles on cloned human NR1/NR2B ion channels expressed in mammalian cells (FLIPR calcium flux)
Format: cell-based
Settings: cloned human NR1/NR2B, Table 5
Method in brief: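 Compounds were added to dye-loaded cells for 5 min with fluorescence monitored for agonism, followed by co-agonists (glutamate ~EC80, glycine 10 μM saturating) for 5 min. Cells stably expressed inducible human NR1/NR2B, and the buffer was pH 7.4. The FLIPR Ca2+ flux signal was normalized against control wells.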

Chain of cloned human NR1/NR2B ion channels (Q13224 27-1484, other chains not shown): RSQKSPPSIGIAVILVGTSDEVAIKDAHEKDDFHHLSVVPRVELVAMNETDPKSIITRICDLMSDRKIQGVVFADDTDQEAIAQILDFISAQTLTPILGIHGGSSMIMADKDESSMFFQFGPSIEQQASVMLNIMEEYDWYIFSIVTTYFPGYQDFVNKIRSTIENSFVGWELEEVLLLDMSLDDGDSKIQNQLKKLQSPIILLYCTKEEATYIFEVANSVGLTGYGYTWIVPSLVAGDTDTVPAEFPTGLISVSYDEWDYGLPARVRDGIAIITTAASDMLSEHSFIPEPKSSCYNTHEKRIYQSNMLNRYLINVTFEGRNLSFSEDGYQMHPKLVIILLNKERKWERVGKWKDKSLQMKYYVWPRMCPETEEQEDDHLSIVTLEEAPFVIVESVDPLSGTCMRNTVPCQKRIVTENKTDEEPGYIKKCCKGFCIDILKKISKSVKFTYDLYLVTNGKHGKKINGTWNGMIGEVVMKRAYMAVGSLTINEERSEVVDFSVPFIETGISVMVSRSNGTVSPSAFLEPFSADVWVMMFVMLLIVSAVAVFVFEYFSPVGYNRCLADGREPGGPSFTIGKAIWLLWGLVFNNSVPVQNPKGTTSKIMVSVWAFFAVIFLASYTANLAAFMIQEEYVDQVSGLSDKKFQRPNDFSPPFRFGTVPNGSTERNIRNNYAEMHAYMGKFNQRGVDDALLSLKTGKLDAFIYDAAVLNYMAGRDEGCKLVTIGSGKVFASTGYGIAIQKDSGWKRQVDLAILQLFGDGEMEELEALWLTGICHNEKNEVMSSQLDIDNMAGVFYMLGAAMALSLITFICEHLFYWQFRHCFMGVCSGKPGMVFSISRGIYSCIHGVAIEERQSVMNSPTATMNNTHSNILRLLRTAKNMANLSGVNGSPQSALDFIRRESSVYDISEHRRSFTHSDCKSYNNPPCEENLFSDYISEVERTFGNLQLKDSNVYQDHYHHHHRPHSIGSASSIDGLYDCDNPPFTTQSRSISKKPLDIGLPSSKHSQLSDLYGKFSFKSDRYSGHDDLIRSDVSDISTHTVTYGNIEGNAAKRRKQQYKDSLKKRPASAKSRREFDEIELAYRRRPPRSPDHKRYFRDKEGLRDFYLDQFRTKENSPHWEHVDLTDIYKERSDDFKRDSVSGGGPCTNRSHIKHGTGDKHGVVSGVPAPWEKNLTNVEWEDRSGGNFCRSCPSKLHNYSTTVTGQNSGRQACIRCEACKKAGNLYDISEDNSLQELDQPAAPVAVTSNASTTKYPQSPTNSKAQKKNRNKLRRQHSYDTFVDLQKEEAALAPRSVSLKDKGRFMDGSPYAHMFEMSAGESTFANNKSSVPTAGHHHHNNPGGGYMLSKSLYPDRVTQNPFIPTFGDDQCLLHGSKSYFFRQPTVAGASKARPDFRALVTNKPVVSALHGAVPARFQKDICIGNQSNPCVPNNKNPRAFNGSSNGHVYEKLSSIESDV

IC50	pIC50	Compound
20 nM		O=C(Cn1cc(F)c2ncc(-c3cccc(C(F)F)c3)cc21)C1CC1 [Example 321, 1-Cyclopropyl-2-[6-[3-(difluoromethyl)phenyl]-3-fluoro-pyrrolo[3,2-b]pyridin-1-yl]ethanone]
20 nM		Cc1csc(-c2cnc3c(F)cn(CC(=O)N4CCC4)c3c2)c1 [Example 322, 1-(Azetidin-1-yl)-2-[3-fluoro-6-(4-methyl-2-thienyl)pyrrolo[3,2-b]pyridin-1-yl]ethanone]
100 nM		O=C(Cn1cc(F)c2ncc(-c3cccc(C(F)F)c3)cc21)N1CCC1 [Example 323, 1-(Azetidin-1-yl)-2-[6-[3-(difluoromethyl)phenyl]-3-fluoro-pyrrolo[3,2-b]pyridin-1-yl]ethanone]
100 nM		Cc1cc(-c2cnc3c(F)cn(CC(=O)C(C)C)c3c2)ccc1F [Example 324, 1-[3-Fluoro-6-(4-fluoro-3-methyl-phenyl)pyrrolo[3,2-b]pyridin-1-yl]-3-methyl-butan-2-one]
200 nM		CCc1cccc(-c2cnc3c(F)cn(CC(=O)C(C)C)c3c2)c1 [Example 325, 1-[6-(3-Ethylphenyl)-3-fluoro-pyrrolo[3,2-b]pyridin-1-yl]-3-methyl-butan-2-one]
200 nM		CC(C)C(=O)Cn1cc(F)c2ncc(-c3ccc(F)c(F)c3)cc21 [Example 326, 1-[6-(3,4-Difluorophenyl)-3-fluoro-pyrrolo[3,2-b]pyridin-1-yl]-3-methyl-butan-2-one]
63.1 nM		CC(C)C(=O)Cn1cc(F)c2ncc(-c3cccc(F)c3)cc21 [Example 327, 1-[3-Fluoro-6-(3-fluorophenyl)pyrrolo[3,2-b]pyridin-1-yl]-3-methyl-butan-2-one]
63.1 nM		CC(C)C(=O)Cn1cc(F)c2ncc(-c3cccc(C(F)(F)F)c3)cc21 [Example 328, 1-[3-Fluoro-6-[3-(trifluoromethyl)phenyl]pyrrolo[3,2-b]pyridin-1-yl]-3-methyl-butan-2-one]
501 nM		Cc1cccc(-c2cnc3c(F)cn(CC(=O)C(C)C)c3c2)c1 [Example 329, 1-[3-Fluoro-6-(m-tolyl)pyrrolo[3,2-b]pyridin-1-yl]-3-methyl-butan-2-one]
63.1 nM		CSCn1ccc2ncc(-c3ccc(F)c(C)c3)cc21 [Example 330, 6-(4-Fluoro-3-methyl-phenyl)-1-(methylsulfanylmethyl)pyrrolo[3,2-b]pyridine]
1580 nM		Cc1cc(-c2cnc3ccn(CS(C)(=O)=O)c3c2)ccc1F [Example 332, 6-(4-Fluoro-3-methyl-phenyl)-1-(methylsulfonylmethyl)pyrrolo[3,2-b]pyridine]
6310 nM		CCC(=O)Cn1cc(F)c2ncc(-c3ccc(F)cc3)cc21 [Example 333, 1-[3-Fluoro-6-(4-fluorophenyl)pyrrolo[3,2-b]pyridin-1-yl]butan-2-one]
25.1 nM		CCC(=O)Cn1cc(F)c2ncc(-c3cc(F)c(F)c(F)c3)cc21 [Example 334, 1-[3-Fluoro-6-(3,4,5-trifluorophenyl)pyrrolo[3,2-b]pyridin-1-yl]butan-2-one]
12.6 nM		CCC(=O)Cn1cc(F)c2ncc(-c3ccc(F)c(C)c3)cc21 [Example 335, 1-[3-Fluoro-6-(4-fluoro-3-methyl-phenyl)pyrrolo[3,2-b]pyridin-1-yl]butan-2-one]
20 nM		CCC(=O)Cn1cc(F)c2ncc(-c3ccc(F)c(F)c3)cc21 [Example 336, 1-[6-(3,4-Difluorophenyl)-3-fluoro-pyrrolo[3,2-b]pyridin-1-yl]butan-2-one]
15.8 nM		CCC(=O)Cn1cc(F)c2ncc(-c3cccc(C(F)F)c3)cc21 [Example 337, 1-[6-[3-(Difluoromethyl)phenyl]-3-fluoro-pyrrolo[3,2-b]pyridin-1-yl]butan-2-one]
15.8 nM		CCC(=O)Cn1cc(F)c2ncc(-c3ccc(Cl)s3)cc21 [Example 338, 1-[6-(5-Chloro-2-thienyl)-3-fluoro-pyrrolo[3,2-b]pyridin-1-yl]butan-2-one]
12.6 nM		CCC(=O)Cn1cc(F)c2ncc(-c3cc(C)cs3)cc21 [Example 339, 1-[3-Fluoro-6-(4-methyl-2-thienyl)pyrrolo[3,2-b]pyridin-1-yl]butan-2-one]
	7.9	CC(=O)CCn1ccc2ncc(-c3ccc(F)cc3)cc21 [Example 340, 4-[6-(4-Fluorophenyl)pyrrolo[3,2-b]pyridin-1-yl]butan-2-one]
1000 nM		CC(C)C(=O)Cn1cc(F)c2ncc(-c3ccc(F)cc3)cc21 [Example 341, 1-[3-Fluoro-6-(4-fluorophenyl)pyrrolo[3,2-b]pyridin-1-yl]-3-methyl-butan-2-one]
50.1 nM		CC(C)C(=O)Cn1cc(F)c2ncc(-c3cccc(C(F)F)c3)cc21 [Example 342, 1-[6-[3-(Difluoromethyl)phenyl]-3-fluoro-pyrrolo[3,2-b]pyridin-1-yl]-3-methyl-butan-2-one]

IC50	pIC50	Compound
63.1 nM		Cc1csc(-c2cnc3c(F)cn(CC(=O)C(C)C)c3c2)c1 [Example 343, 1-[3-Fluoro-6-(4-methyl-2-thienyl)pyrrolo[3,2-b]pyridin-1-yl]-3-methyl-butan-2-one]
50.1 nM		CC(C)C(=O)Cn1cc(F)c2ncc(-c3cc(F)c(F)c(F)c3)cc21 [Example 344, 1-[3-Fluoro-6-(3,4,5-trifluorophenyl)pyrrolo[3,2-b]pyridin-1-yl]-3-methyl-butan-2-one]
31.6 nM		CC(C)C(=O)Cn1cc(F)c2ncc(-c3ccc(Cl)s3)cc21 [Example 345, 1-[6-(5-Chloro-2-thienyl)-3-fluoro-pyrrolo[3,2-b]pyridin-1-yl]-3-methyl-butan-2-one]
39.8 nM		Cc1cc(-c2cnc3ccn(CC(=O)N4CCOCC4)c3c2)ccc1F [Example 346, 2-[6-(4-Fluoro-3-methyl-phenyl)pyrrolo[3,2-b]pyridin-1-yl]-1-morpholino-ethanone]
31.6 nM		Cc1cc(-c2cnc3ccn(CC(=O)NC4CC4)c3c2)ccc1F [Example 348, N-Cyclopropyl-2-[6-(4-fluoro-3-methyl-phenyl)pyrrolo[3,2-b]pyridin-1-yl]acetamide]
15.8 nM		O=C(Cn1ccc2ncc(-c3cc(F)cc(F)c3)cc21)NC1CC1 [Example 350, N-Cyclopropyl-2-[6-(3,5-difluorophenyl)pyrrolo[3,2-b]pyridin-1-yl]acetamide trifluoroacetate salt]
39.8 nM		O=C(Cn1ccc2ncc(-c3cccc(C(F)(F)F)c3F)cc21)NC1CC1 [Example 352, N-Cyclopropyl-2-[6-[2-fluoro-3-(trifluoromethyl)phenyl]pyrrolo[3,2-b]pyridin-1-yl]acetamide trifluoroacetate salt]
31.6 nM		O=C(Cn1ccc2ncc(-c3ccc(F)cc3)cc21)N1CCC1 [Example 353, 1-(Azetidin-1-yl)-2-[6-(4-fluorophenyl)pyrrolo[3,2-b]pyridin-1-yl]ethanone]
31.6 nM		O=C(Cn1ccc2ncc(-c3ccccc3)cc21)N1CCC1 [Example 354, 1-(Azetidin-1-yl)-2-(6-phenylpyrrolo[3,2-b]pyridin-1-yl)ethanone]
50.1 nM		O=C(Cn1ccc2ncc(-c3cc(F)cc(F)c3)cc21)N1CCC1 [Example 355, 1-(Azetidin-1-yl)-2-[6-(3,5-difluorophenyl)pyrrolo[3,2-b]pyridin-1-yl]ethanone]
20 nM		Cc1cccc(-c2cnc3ccn(CC(=O)N4CCC4)c3c2)c1 [Example 356, 1-(Azetidin-1-yl)-2-[6-(m-tolyl)pyrrolo[3,2-b]pyridin-1-yl]ethanone trifluoroacetate salt]
20 nM		O=C(Cn1ccc2ncc(-c3ccc(Cl)c(Cl)c3)cc21)N1CCC1 [Example 357, 1-(Azetidin-1-yl)-2-[6-(3,4-dichlorophenyl)pyrrolo[3,2-b]pyridin-1-yl]ethanone trifluoroacetate salt]
39.8 nM		O=C(Cn1ccc2ncc(-c3cccc(C(F)(F)F)c3F)cc21)N1CCC1 [Example 358, 1-(Azetidin-1-yl)-2-[6-[2-fluoro-3-(trifluoromethyl)phenyl]pyrrolo[3,2-b]pyridin-1-yl]ethanone trifluoroacetate salt]
31.6 nM		Cc1csc(-c2cnc3ccn(CC(=O)N4CCC4)c3c2)c1 [Example 359, 1-(Azetidin-1-yl)-2-[6-(4-methyl-2-thienyl)pyrrolo[3,2-b]pyridin-1-yl]ethanone trifluoroacetate salt]
31.6 nM		Cc1cc(-c2cnc3c(Cl)cn(CC(=O)N4CCC4)c3c2)ccc1F [Example 360, 1-(Azetidin-1-yl)-2-[3-chloro-6-(4-fluoro-3-methyl-phenyl)pyrrolo[3,2-b]pyridin-1-yl]ethanone]
25.1 nM		O=C(Cn1ccc2ncc(-c3ccc(F)c(F)c3)cc21)N1CC(F)(F)C1 [Example 361, 1-(3,3-Difluoroazetidin-1-yl)-2-[6-(3,4-difluorophenyl)pyrrolo[3,2-b]pyridin-1-yl]ethanone]
31.6 nM		O=C(Cn1ccc2ncc(-c3cccc(C(F)(F)F)n3)cc21)N1CCC1 [Example 362, 1-(Azetidin-1-yl)-2-[6-[6-(trifluoromethyl)-2-pyridyl]pyrrolo[3,2-b]pyridin-1-yl]ethanone]
79.4 nM		O=C(Cn1ccc2ncc(-c3cc(F)c(F)c(F)c3)cc21)N1CCC1 [Example 363, 1-(Azetidin-1-yl)-2-[6-(3,4,5-trifluorophenyl)pyrrolo[3,2-b]pyridin-1-yl]ethanone]
20 nM		CC(C)C(=O)Cn1ccc2ncc(-c3cc(F)cc(F)c3)cc21 [Example 364, 1-[6-(3,5-Difluorophenyl)pyrrolo[3,2-b]pyridin-1-yl]-3-methyl-butan-2-one]
20 nM		O=C(Cn1ccc2ncc(-c3ccc(F)cc3)cc21)C1CCC1 [Example 365, 1-Cyclobutyl-2-[6-(4-fluorophenyl)pyrrolo[3,2-b]pyridin-1-yl]ethanone]
31.6 nM		CCc1cccc(-c2cnc3ccn(CC(=O)NC4CC4)c3c2)c1 [Example 366, N-Cyclopropyl-2-[6-(3-ethylphenyl)pyrrolo[3,2-b]pyridin-1-yl]acetamide]
